In the Kinase Knowledgebase extract (Sharma et al. 2016) one finds IC50 data, which are given here for 40 compounds.

Assay [1] concerns the target EGFR (human) (UniProt P00533). To be noted: a431.
Assay [2] deals with EGFR (human), P00533 [Antiproliferation of H195 Cells Having Overexpressed EGFR T790 Mutant Kinase].
For assay [3], the target named is EGFR (human) (UniProt P00533).
Chain of EGFR (human) (P00533 whole entry, looked up): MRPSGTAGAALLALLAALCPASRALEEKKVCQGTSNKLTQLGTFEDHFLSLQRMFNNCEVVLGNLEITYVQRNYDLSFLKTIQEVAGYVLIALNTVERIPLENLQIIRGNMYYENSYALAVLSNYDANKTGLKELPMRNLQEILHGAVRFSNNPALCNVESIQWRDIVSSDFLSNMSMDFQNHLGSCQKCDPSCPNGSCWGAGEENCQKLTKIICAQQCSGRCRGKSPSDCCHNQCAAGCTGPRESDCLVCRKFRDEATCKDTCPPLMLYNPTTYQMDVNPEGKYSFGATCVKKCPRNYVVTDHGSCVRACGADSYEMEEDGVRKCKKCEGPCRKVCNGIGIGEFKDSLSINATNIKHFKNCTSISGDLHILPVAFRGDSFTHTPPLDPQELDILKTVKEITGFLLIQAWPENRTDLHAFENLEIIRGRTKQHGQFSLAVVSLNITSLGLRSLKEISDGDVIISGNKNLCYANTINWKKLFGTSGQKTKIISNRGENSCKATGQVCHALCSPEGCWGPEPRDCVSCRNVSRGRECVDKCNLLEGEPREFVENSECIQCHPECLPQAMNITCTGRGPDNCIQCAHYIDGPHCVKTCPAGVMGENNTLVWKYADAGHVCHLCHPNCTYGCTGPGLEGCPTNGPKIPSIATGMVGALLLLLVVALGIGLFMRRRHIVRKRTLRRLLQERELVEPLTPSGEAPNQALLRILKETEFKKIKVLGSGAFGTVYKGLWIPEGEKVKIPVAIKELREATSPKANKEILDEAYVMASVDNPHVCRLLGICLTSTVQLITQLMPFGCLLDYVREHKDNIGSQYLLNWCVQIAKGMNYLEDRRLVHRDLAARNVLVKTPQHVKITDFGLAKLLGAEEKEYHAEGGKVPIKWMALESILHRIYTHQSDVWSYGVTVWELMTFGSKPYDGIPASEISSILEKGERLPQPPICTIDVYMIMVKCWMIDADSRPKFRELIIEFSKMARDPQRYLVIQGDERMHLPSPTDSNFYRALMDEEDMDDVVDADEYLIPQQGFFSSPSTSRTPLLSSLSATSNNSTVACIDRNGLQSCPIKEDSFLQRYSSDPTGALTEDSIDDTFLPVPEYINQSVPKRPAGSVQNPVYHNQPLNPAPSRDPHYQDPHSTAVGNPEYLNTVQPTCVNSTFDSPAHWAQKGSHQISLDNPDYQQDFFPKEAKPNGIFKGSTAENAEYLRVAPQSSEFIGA

Chain of EGFR (human), P00533 [Antiproliferation of H195 Cells Having Overexpressed EGFR T790 Mutant Kinase] (P00533 whole entry, looked up, change not shown): as the sequence (P00533 whole entry, looked up) above

`C=CC(=O)N1CC(Oc2cc3c(Nc4cccc(C#N)c4)ncnc3cc2OC)C1` showed an IC50 on EGFR (human) [1] of 0.017 µM.

`C=CC(=O)N1CCC(Oc2cc3c(Nc4ccc(O)cc4Cl)ncnc3cc2OC)CC1` came in with an IC50 against EGFR (human) [1] of 0.176 µM.

`COc1cc2ncnc(Nc3ccc(Cl)c(Cl)c3F)c2cc1OC1CCN(C(=O)/C=C\C(=O)O)CC1` had an IC50 against EGFR (human) [1] of 0.322 µM.

Turning to `COc1cc2ncnc(Nc3ccc(F)c(Cl)c3F)c2cc1OCCNC(=O)/C=C/CN(C)C`, the IC50 against EGFR (human) [1] is 0.018 µM.

Consider `COc1cc2ncnc(Nc3cccc(Cl)c3F)c2cc1OC1CCN(C(=O)/C=C/CN(C)C)CC1`, for which the IC50 on EGFR (human) [1] was found to be 0.076 µM.

Regarding `COC(=O)/C=C\C(=O)N1CCC(Oc2cc3c(Nc4ccc(Cl)c(Cl)c4F)ncnc3cc2OC)CC1`, the IC50 against EGFR (human) [1] came out at 0.008 µM.

On to `COc1cc2ncnc(Nc3ccc(F)c(Cl)c3F)c2cc1O[C@H]1CCN(C(=O)/C=C/CN2CCOCC2)C1`, for which the IC50 at EGFR (human) [1] was determined as 0.085 µM.

Consider `C=CC(=O)N1CCC(Oc2cc3c(N[C@H](C)c4ccccc4)ncnc3cc2OC)CC1`, for which the IC50 against EGFR (human) [1] is 0.514 µM.

Turning to `C=CC(=O)N1CCC(Oc2cc3c(Nc4ccc(OCc5cccc(F)c5)c(Cl)c4)ncnc3cc2OC)CC1`, the IC50 on EGFR (human) [1] was 0.01 µM.

For the compound `C=CC(=O)N1CCC(Oc2cc3c(Nc4ccc(Cl)c(O)c4)ncnc3cc2OC)CC1`, the IC50 against EGFR (human) [1] came to 0.105 µM.

`C=CC(=O)N1CC(Oc2cc3c(Nc4ccc(F)c(Cl)c4F)ncnc3cc2OC)C1`: the IC50 stood at 0.0003 µM against EGFR (human) [1] and 0.0015 µM in assay [2].

As for `C=CC(=O)N1CC[C@H](Oc2cc3c(Nc4ccc(F)c(Cl)c4F)ncnc3cc2OC)C[C@H]1C(=O)NCCSC`, the IC50 on EGFR (human) [1] turned out to be 0.0024 µM; in assay [2] it was 0.005 µM.

Compound `C=CC(=O)N1CCC(Oc2cc3c(Nc4ccc(O)c(F)c4)ncnc3cc2OC)CC1` displayed a half-maximal inhibitory concentration (IC50) at EGFR (human) [1] of 0.129 µM.

For `C=CC(=O)N1CC[C@H](Oc2cc3c(Nc4ccc(F)c(Cl)c4F)ncnc3cc2OC)C[C@H]1C(=O)NCCN(C)C`, the IC50 on EGFR (human) [1] came to 0.0057 µM; in assay [2], 0.03 µM.

Consider `COc1cc2ncnc(Nc3cccc(Cl)c3F)c2cc1OC1CCN(C(=O)CO)CC1`, for which the figures for the IC50 on EGFR (human) [1] and on EGFR (human) [3] were 0.039 µM and 0.204 µM, respectively.

The compound `COc1cc2ncnc(Nc3ccc(F)c(Cl)c3F)c2cc1O[C@H]1CCN(C(=O)C#CCCN2CCN(C)CC2)C1` yielded an IC50 on EGFR (human) [1] of 0.053 µM.

For `C=CC(=O)N1CCC(Oc2cc3c(Nc4cccc(C(F)(F)F)c4F)ncnc3cc2OC)CC1`, the 50% inhibitory concentration (IC50) on EGFR (human) [1] is 0.011 µM.

As to `C=CC(=O)N1CC[C@@H](Oc2cc3c(Nc4ccc(F)c(Cl)c4F)ncnc3cc2OC)C[C@@H]1C(N)=O`, the results for the IC50 (at EGFR (human) [1]; in assay [2]) were 0.0008 µM and 0.0052 µM, respectively.

Consider `C=CC(=O)N1CCC(Oc2cc3c(Nc4ccc(F)c(C)c4)ncnc3cc2OC)CC1`, for which the IC50 against EGFR (human) [1] is 0.008 µM.

Consider `C=C(CN1CCOCC1)C(=O)N1CC(Oc2cc3c(Nc4ccc(F)c(Cl)c4F)ncnc3cc2OC)C1`, for which the IC50 was found to be 0.0015 µM against EGFR (human) [1] and 0.008 µM in assay [2].

At EGFR (human) [1], `C=CC(=O)N1CCC(Oc2cc3c(Nc4ccc(F)c(F)c4F)ncnc3cc2OC)CC1` registered an IC50 of 0.043 µM.

With `CNC(=O)/C=C/C(=O)N1CC(Oc2cc3c(Nc4ccc(F)c(Cl)c4F)ncnc3cc2OC)C1`, the IC50 on EGFR (human) [1] came to 0.041 µM.

With `C=CC(=O)NCCOc1cc2c(Nc3ccc(F)c(Cl)c3F)ncnc2cc1OC`, the concentration for half-maximal inhibition (IC50) against EGFR (human) [1] was determined as 0.699 µM.

With `C=CC(=O)N1CCC(Oc2cc3c(Nc4ccc(Cl)c(C#N)c4)ncnc3cc2OC)CC1`, the IC50 at EGFR (human) [1] stood at 0.035 µM.

In the case of `C=CC(=O)N1CCC(Oc2cc3c(Nc4cccc(N(C)C)c4)ncnc3cc2OC)CC1`, on EGFR (human) [1], the IC50 was found to be 0.142 µM.

At EGFR (human) [1], `C/C=C/C(=O)N1CC[C@H](Oc2cc3c(Nc4ccc(F)c(Cl)c4F)ncnc3cc2OC)C1` came in with an IC50 of 0.085 µM.

For `C=CC(=O)N1CC[C@H](Oc2cc3c(Nc4ccc(F)c(Cl)c4F)ncnc3cc2OC)C[C@H]1C(=O)NCCCO`, on EGFR (human) [1], the IC50 amounted to 0.02 µM.

`C=CC(=O)N1CC[C@H](Oc2cc3c(Nc4ccc(F)c(Cl)c4F)ncnc3cc2OC)C[C@H]1C(=O)NCC`: on EGFR (human) [1], the IC50 came to 0.008 µM.

At EGFR (human) [1], `C=CC(=O)N1CCC(Oc2cc3c(Nc4ccc(C)c(C)c4)ncnc3cc2OC)CC1` gave an IC50 of 0.019 µM.

As for `C=CC(=O)N1CC[C@H](Oc2cc3c(Nc4ccc(F)c(Cl)c4F)ncnc3cc2OC)C[C@H]1C(=O)NC(C)C`, the IC50 against EGFR (human) [1] amounted to 0.0075 µM.

As for `C#Cc1cccc(Nc2ncnc3cc(OC)c(OC4CCN(C(=O)C=C)CC4)cc23)c1`, on EGFR (human) [1], the IC50 was 0.052 µM.

In the case of `C=CC(=O)N1CC[C@H](Oc2cc3c(Nc4ccc(F)c(Cl)c4F)ncnc3cc2OC)C1`, the figures for the IC50 (against EGFR (human) [1]; in assay [2]; against EGFR (human) [3]) were 0.004 µM, 0.08 µM and 0.003 µM, respectively.

For `C=C(NC(C)=O)C(=O)N1CC(Oc2cc3c(Nc4ccc(F)c(Cl)c4F)ncnc3cc2OC)C1`, the IC50 at EGFR (human) [1] came out at 0.0031 µM; in assay [2], 0.05 µM.

Take `C=CC(=O)N1CC[C@H](Oc2cc3c(Nc4ccc(OCc5ccccn5)c(Cl)c4)ncnc3cc2OC)C1`: at EGFR (human) [1], the half-maximal inhibitory concentration (IC50) came to 0.014 µM.

`C=CC(=O)N1CC[C@H](Oc2cc3c(Nc4ccc(F)c(Cl)c4F)ncnc3cc2OC)C[C@H]1C(=O)NCCO`: the IC50 came out at 0.0054 µM at EGFR (human) [1] and 0.039 µM in assay [2].

The compound `C=CC(=O)N1CCC(Oc2cc3c(Nc4cccc(Cl)c4OC)ncnc3cc2OC)CC1` had an IC50 against EGFR (human) [1] of 0.003 µM.

`C=CC(=O)N1CCC(Oc2cc3c(Nc4cccc(SC)c4)ncnc3cc2OC)CC1` showed a concentration for half-maximal inhibition (IC50) against EGFR (human) [1] of 0.305 µM.

`C=CC(=O)N1CCC(Oc2cc3c(Nc4ccc(F)c(Cl)c4F)ncnc3cc2OCCCN2CCOCC2)CC1` displayed an IC50 on EGFR (human) [1] of 0.004 µM.

On to `C=CC(=O)N1CCC(Oc2cc3c(Nc4cccc(Cl)c4F)ncnc3cc2OC)CC1`, for which the figures for the IC50 (at EGFR (human) [1]; in assay [2]) were 0.002 µM and 0.022 µM, respectively.

Turning to `COc1cc2ncnc(Nc3ccc(Cl)c(Cl)c3F)c2cc1OC1CCN(C(=O)/C=C\Cl)CC1`, the IC50 against EGFR (human) [1] turned out to be 0.014 µM.
